pIC50: −log10 of the molar value. Residues, ends and D or L forms follow the SMILES beside them. *: point of attachment. Cbz = O=C(OCc1ccccc1)*
Tests used:
DUB activity = assay: Western / HA-UbVS labeling of DUB activity in intact cells; type: cell-based; conditions: for DUBs labeling (HA-UbVS): Z138 treated cells, AG490 250 μM
Protocol: To assay for changes in activity of cellular deubiquitinase enzymes, leukemic cells were lysed in DUB buffer (50 mM Tris pH 7.4, 5 mM MgCl2, 150 mM NaCl) for 10 min at 4° C. The lysates were centrifuged at 20,000 RCF for 10 min and the supernatant was used for DUB labeling. Equal amounts of lysate were incubated with 500 ng of HA-UbVs for 1 hr at room temperature, followed by boiling in reducing sample buffer and resolving by SDS-PAGE. HA immunoblotting was used to detect DUB labeling.
To assay for changes in activity of cellular deubiquitinase enzymes, Z138 and HEK293 cells were lysed in DUB buffer (50 mM Tris pH 7.4, 5 mM MgCl2, 150 mM NaCl) for 10 min at 4° C. The lysates were centrifuged at 20,000 RFC for 10 min and the supernatant was used for DUB labeling. Equal amounts of lysate were incubated with 500 ng of HA-UbVs for 1 hr at room temperature, followed by boiling in reducing sample buffer and resolving by SDS-PAGE. After protein transfer to nitrocellulose membranes, HA immunoblotting was used to detect DUB labeling.
(§1) Cancer Res, 2010. 70(22): p. […] Blood, 2011. 117(11): p. […] Biochem Pharmacol, 2011. 82(4): p. […] Blood, 2007. 109(8): p. 3470-8.

ubiquitinated proteins = assay: Ubiquitin immunoblot of cell extracts; type: cell-based; conditions: for accumulation of ubiquitinated proteins: Z138 cells; for ubiquitinated protein levels: CML cells
Protocol: (§2) Total cell lysates were prepared by boiling and sonicating cell pellets in 1× Laemmli reducing sample buffer. To prepare detergent soluble and insoluble fractions, cells were lysed in cold isotonic lysis buffer [10 mM Tris-HCl (pH 7.5), 0.5% Triton X-100, 150 mM NaCl along with Mini-Complete and PhosSTOP] for 15 min on ice and centrifuged 10 min at 20,000 RCF. The clarified supernatant was used as the detergent soluble cell fraction. The residual pellet was washed and extracted in Laemmli reducing sample buffer and briefly sonicated to derive the detergent insoluble fraction. Equal volumes of cellular lysate or equal protein amounts were electrophoresed on SDS-PAGE gels and transferred to nitrocellulose membranes (Whatmann, Dassel, Germany). Proteins were detected by immunoblotting.
Whole cell lysates were prepared by boiling and sonicating the cell pellets in 1× Laemmli reducing sample buffer. To prepare detergent soluble and insoluble fractions, cells were lysed in cold isotonic lysis buffer [10 mM Tris-HCl (pH 7.5), 0.5% Triton X-100, 150 mM NaCl along with Mini-Complete and PhosSTOP] for 15 min on ice and centrifuged 10 minutes at 20,000 RCF. The clarified supernatant was used as a source of the detergent soluble cell fraction. The detergent insoluble fraction was extracted by the sonication of residual pellet in equal volumes of boiling 1× Laemmli reducing sample buffer. Equal volumes of cellular lysate or equal protein amounts were electrophoresed on SDS-PAGE gels.

cellular DUB activity = assay: DUB activity of lysates from treated cells (Ub-AMC, Ub chain disassembly); type: cell-based; conditions: Z138 cells, 5 μM WP1130 or 50 nM bortezomib, by 4 hours
Protocol: Cells were lysed in ice cold DUB buffer containing 50 mM Tris-HCl, pH 7.5, 0.5% NP-40, 5 mM MgCl2, 150 mM NaCl and 1 mM phenylmethylsulfonylfluoride. Briefly, 5 μg of clarified lysate from untreated or treated cells was incubated with 500 nM Ub-AMC in a 100 μL reaction volume at 37° C. and the release of AMC fluorescence was recorded at ex/em 380/480 using a spectrofluorometer. USP9x was immunoprecipitated from 500 μg of cell lysate and incubated in DUB buffer containing NEM, WP1130 or DMSO in a 100 μL reaction volume for 30 min. The reaction was initiated by the addition of 500 nM Ub-AMC and the release of AMC-fluorescence was recorded.
In vitro disassembly of purified polyubiquitin chains (K-48/K-63 linked) was performed as previously described. Five μg of lysate from untreated or WP1130 treated cells were prepared in DUB buffer and incubated with K48- or K-63 linked chains (1 μg) for 10 min at 37° C. The extent of chain disassembly was assessed by ubiquitin immunoblotting.
Inhibition of cellular deubiquitinases could lead to an increase in high molecular weight ubiquitinated proteins in the absence of proteasome inhibition. […] To directly assess the impact of WP1130 on DUB activity in treated cells, cell lysates from control and treated cells were incubated with ubiquitin-AMC and fluorescence generated as a consequence of substrate cleavage was measured as an indicator of DUB activity.
The effect of WP1130 treatment on in vitro deubiquitination/disassembly of purified K48-linked or K63-linked polyubiquitin chains was evaluated. Lysates from WP1130 treated (2 hr) or untreated cells were incubated with 1 μg of unanchored polyubiquitin chains for 5, 10 and 15 min at 37° C.

Bcr-Abl = Bcr-Abl immunoblot of cell fractions; type: cell-based; conditions: CML cells; WP1130 5 μM, bortezomib 50 nM
WDT2 = assay: MTT cell growth and survival; type: cell-based; conditions: WDT2 cell line
Description: as §1

K562 = assay: MTT cell growth and survival; type: cell-based; conditions: K562 cell line
Description: as §1

Hsp70 = Hsp70 immunoblot; type: cell-based; conditions: CML cells
BV-173 and BV-173R = assay: Anti-proliferative effects in CML lines; conditions: BV-173 (WT Bcr-Abl) and BV-173R (T315I)
pStat5 = assay: Western blot of pStat5; type: cell-based; conditions: SET, HEL cell lines
Protocol: as §2, §1

[1] = molecular target: ubiquitin iso-peptidase activity; conditions: read-out: IC50, ubiquitin iso-peptidase activity in cells; cited from earlier work
20S proteasome = molecular target: T1, 20S proteasome (Homo sapiens, UniProt P28074); assay: Proteasome activity assay in treated cells (Suc-LLVY-AMC); type: cell-based; conditions: 5 μM, 2 hr
T1 construct: endogenous in cells; host or cells: K562 and other CML lines, Z138
T1 sequence (P28074 60-263): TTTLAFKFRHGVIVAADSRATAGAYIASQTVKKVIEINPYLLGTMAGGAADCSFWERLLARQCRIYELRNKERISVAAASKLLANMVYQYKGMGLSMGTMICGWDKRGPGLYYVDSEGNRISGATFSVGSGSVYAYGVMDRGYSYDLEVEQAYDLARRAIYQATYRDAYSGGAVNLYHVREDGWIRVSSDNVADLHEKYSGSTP
Protocol: (§3) Fluorogenic substrate Suc-LLVY-AMC was used to assay for the chymotryptic-like activity of the 20S proteasome. To assay for in vivo proteasome inhibition cells were treated with WP1130 (5 μM) or MG132 (5 μM) for 2 hours and lysed in ice-cold lysis buffer (50 mM HEPES, pH 7.5, 5 mM EDTA, 150 mM NaCl, 1% Triton X-100). Lysates were clarified by centrifugation at 20,000 RCF for 10 min and equal amounts of protein from each sample were incubated at 37° C. with 100 μM fluorogenic substrate. To assay for direct inhibition of the 20S proteasome in vitro, purified 20S human proteasome (200 ng) was incubated with WP1130 (5 μM), MG132 (5 μM) or Lactacystin (5 μM) for 30 min at 37° C. before addition of the substrates. Fluorescence intensity was measured using a spectrophotometer at excitation 360 nm & emission 460 nm. Assays were performed in triplicate, and statistical significance was determined with a paired Student's t test.

20S human proteasome = molecular target: T2, 20S human proteasome (Homo sapiens, UniProt P28074); assay: Proteasome activity assay on purified 20S proteasome; type: biochemical; conditions: 5 μM
T2 construct: purchased BostonBiochem
Protocol: as §3

USP9X = assay: Western / HA-UbVS labeling of USP9X in intact cells or lysates; type: cell-based; conditions: Z138 treated cells
Murine norovirus (MNV) = assay: Murine norovirus plaque assay; type: cell-based; conditions: MNV-1 (MOI 5), RAW 264.7, 20 μM, 8 and 12 hours postinfection
Protocol: Viral titers were determined by plaque assay.
Cells were treated with IFN-β as a positive anti-viral control.

tumor cell = assay: Tumor cell proliferation; type: cell-based
Description: WP1051 and WP1052 represent two earlier chemical analogues of WP1130. […] This was unexpected as WP1051 and WP1052 are chemically identical but structurally distinct isomers. Since apoptosis/anti-proliferative properties of WP1130 are related to its ability to suppress cellular DUBs and induce accumulation of ubiquitinated proteins, WP1051 and 1052 were investigated whether they can affect protein ubiquitination and DUB activity.

N#C/C(=C/c1ccc(O)c(O)c1)C(=O)NCc1ccccc1 [AG490, reference compound]
DUBs labeling (HA-UbVS) (DUB activity): no change | accumulation of ubiquitinated proteins (ubiquitinated proteins): did not induce a change

CC(C)C[C@H](NC(=O)[C@H](Cc1ccccc1)NC(=O)c1cnccn1)B(O)O [Bortezomib, reference compound]
reduction of DUB activity (ubiquitin-AMC) (cellular DUB activity): no change | ubiquitinated protein levels (ubiquitinated proteins): elevated | Bcr-Abl trafficking from detergent soluble to insoluble cell fraction (Bcr-Abl): no effect

CCCC(NC(=O)/C(C#N)=C/c1cccc(Br)n1)c1ccc(OCOC)cc1 (stereo not shown) [Compound 6, (E)-3-(6-Bromopyridin-2-yl)-2-cyano-N-(1-(4-(methoxymethoxy)phenyl)butyl)acrylamide]
MTT Activity relative to WP1130 (WDT2): More sensitive

CCCC(NC(=O)/C(C#N)=C/c1cccc(Br)n1)c1ccc(O)cc1 (stereo not shown) [Compound 7, (E)-3-(6-Bromopyridin-2-yl)-2-cyano-N-(1-(4-hydroxyphenyl)butyl)acrylamide]
MTT Activity relative to WP1130 (WDT2): More sensitive

CCC(NC(=O)/C(C#N)=C/c1cccc(Br)n1)c1ccc(OCCOC)cc1 (stereo not shown) [Compound 17, (E)-3-(6-Bromopyridin-2-yl)-2-cyano-N-(1-(4-(2-methoxyethoxy)phenyl)propyl)-acrylamide]
MTT Activity relative to WP1130 (K562): Less sensitive

C=CCNC1=C2C[C@@H](C)C[C@H](OC)[C@H](O)[C@@H](C)/C=C(\C)[C@H](OC(N)=O)[C@@H](OC)/C=C\C=C(/C)C(=O)NC(=CC1=O)C2=O [Compound 17-AAG, 17-Allylamino-17-demethoxygeldanamycin, reference compound]
ubiquitinated protein levels (ubiquitinated proteins): no effect | Hsp70 protein levels (Hsp70): induction of Hsp70 | anti-proliferative effects (BV-173 and BV-173R): anti-proliferative effects

CCC[C@H](NC(=O)C(C#N)C(SCC(O)CO)c1cccc(Br)n1)c1ccccc1 (stereo partly drawn) [Compound 20, 3-(6-Bromopyridin-2-yl)-2-cyano-3-((2,3-dihydroxypropyl)thio)-N—((S)-1-phenylbutyl)propanamide]
MTT Activity relative to WP1130 (K562): More sensitive | Western Targets: DUB activity (DUB activity; SET, HEL cell lines): no effect | Western Targets: pStat5 (pStat5): pStat5: down-regulated; DUB

CCCCC[C@H](O)C/C=C1/C(=O)C=C[C@@H]1C/C=C\CCCC(=O)O [D12-prostaglandin J2]
pIC50 [1]: ~4.52

CC(C)C[C@@H](C=O)NC(=O)[C@H](CC(C)C)NC(=O)[C@H](CC(C)C)NC(=O)OCc1ccccc1 [MG-132, reference compound] (Cbz-Leu-Leu-Leu-aldehyde)
20S proteasome chymotryptic-like activity in intact cells (in vivo) (20S proteasome): substantially inhibited | purified 20S proteasome activity (in vitro) (20S human proteasome): substantially inhibited

C[C@H](NC(=O)/C(C#N)=C/c1ccc([N+](=O)[O-])c(O)c1)c1ccccc1 [WP1051]
HA-UbVS labeling of USP9x (USP9X): could suppress the activity | viral titers by plaque assay (Murine norovirus (MNV)): reduced viral titers | accumulation of ubiquitinated proteins (ubiquitinated proteins): induce accumulation of ubiquitinated proteins in a dose-dependent fashion | suppression of tumor cell proliferation (tumor cell): effective in suppressing tumor cell proliferation

C[C@H](NC(=O)/C(C#N)=C/c1ccc(O)c([N+](=O)[O-])c1)c1ccccc1 [WP1052]
DUBs labeling (HA-UbVS) (DUB activity): no DUB inhibition | viral titers by plaque assay (Murine norovirus (MNV)): not | accumulation of ubiquitinated proteins (ubiquitinated proteins): failed to show any affect | suppression of tumor cell proliferation (tumor cell): failed to show any anti-tumor properties

COc1cc(/C=C/C(=O)CC(=O)/C=C/c2ccc(O)c(OC)c2)ccc1O [curcumin]
pIC50 [1]: 4.00 to 4.10

O=C(C=Cc1ccccc1)C=Cc1ccccc1 [dibenzylideneacetone]
pIC50 [1]: 4.40 to 4.70

C=C1C(=O)C2=CC1CCC(=O)C1(C)CCC(OC(C)=O)C(C)(C)C1CC2O (stereo not shown) [shikoccin]
pIC50 [1]: ~4.82

Source: US8809377B2, “Deubiquitinase inhibitors and methods for use of the same” (The Regents of the University of Michigan, priority 2010, dated 2014)
